Data taken from ChEMBL document CHEMBL1126010, “Conformationally restrained analogues of pravadoline: nanomolar potent, enantioselective, (aminoalkyl)indole agonists of the cannabinoid receptor” (J Med Chem, 1992).

Tests used:
[1] = species on record: Mus musculus; assay: In vitro inhibition of electrically stimulated contractions of isolated mouse vas deferens.; type: functional
[2] = molecular target: Cannabinoid receptor (Rattus norvegicus, UniProt Q9QZN9+P20272); assay: Concentration required to displace 50% of 0.5 nM [3H](aminoalkyl)indole binding to cannabinoid receptor in rat cerebellum membranes; type: cell membranes, Membrane
[3] = species on record: Mus musculus; assay: Inhibitory activity against PG synthesis was measured in mouse brain microsomes.; type: functional
[4] = test system: Mus musculus; assay: In vivo antinociceptive effect was tested in the mouse acetylcholine writhing assay after po administration; type: functional
[5] = molecular target: Cannabinoid receptor (Rattus norvegicus) (UniProt Q9QZN9+P20272); conditions: Cerebellum; Membrane; at 1 µM
Description: Inhibition of 0.5 nM [3H](Aminoalkyl)indole binding to cannabinoid receptor in rat cerebellum membranes at 1 uM

[6] = species on record: Mus musculus; assay: In vitro inhibition of electrically stimulatedcontradions was measured on isolated mouse vas deferens at 10 uM; type: functional
[7] = test system: Mus musculus; assay: (§1) in vivo antinociceptive effect was tested in the mouse acetylcholine writhing assay after iv administration; type: functional
[8] = species on record: Mus musculus; assay: Inhibitory activity against PG synthesis was measured in mouse brain microsomes at 30 uM; type: functional
[9] = test system: Mus musculus; assay: In vivo antinociceptive effect was tested in the mouse acetylcholine writhing assay after 100 mg/kg po administration; type: functional
[10] = test system: Mus musculus; assay: In Vivo antinociceptive effect was tested in the mouse acetylcholine writhing assay after 100 mg/kg po administration; type: functional
[11] = test system: Mus musculus; assay: as §1; type: functional, organism-based

Sequence of Cannabinoid receptor (Rattus norvegicus) (P20272 whole entry, looked up): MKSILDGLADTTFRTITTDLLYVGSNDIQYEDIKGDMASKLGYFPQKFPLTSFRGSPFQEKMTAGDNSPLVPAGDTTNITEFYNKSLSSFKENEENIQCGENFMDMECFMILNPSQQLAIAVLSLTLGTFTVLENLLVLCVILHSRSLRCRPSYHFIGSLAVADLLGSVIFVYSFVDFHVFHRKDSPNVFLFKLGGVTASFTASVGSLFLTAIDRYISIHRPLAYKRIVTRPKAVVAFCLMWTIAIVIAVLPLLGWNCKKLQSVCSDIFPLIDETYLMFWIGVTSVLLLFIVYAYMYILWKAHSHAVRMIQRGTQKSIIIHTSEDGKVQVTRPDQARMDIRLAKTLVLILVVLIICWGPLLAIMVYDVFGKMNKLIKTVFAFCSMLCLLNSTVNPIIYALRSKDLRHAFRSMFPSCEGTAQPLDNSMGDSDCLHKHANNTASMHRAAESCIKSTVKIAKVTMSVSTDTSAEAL
Sequence of Cannabinoid receptor (Rattus norvegicus) (Q9QZN9 whole entry, looked up): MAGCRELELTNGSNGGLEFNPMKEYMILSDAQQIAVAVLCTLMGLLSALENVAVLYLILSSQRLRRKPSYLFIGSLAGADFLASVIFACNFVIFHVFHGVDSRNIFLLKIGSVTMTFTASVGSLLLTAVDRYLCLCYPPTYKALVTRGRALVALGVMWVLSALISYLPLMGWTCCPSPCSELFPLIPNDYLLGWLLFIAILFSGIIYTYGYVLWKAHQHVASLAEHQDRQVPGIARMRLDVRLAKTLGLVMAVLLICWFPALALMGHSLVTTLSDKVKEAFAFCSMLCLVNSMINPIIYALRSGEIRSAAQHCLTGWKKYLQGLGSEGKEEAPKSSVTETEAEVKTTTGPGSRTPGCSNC

C[C@H](CCCc1ccccc1)Oc1cc(O)c2c(c1)N[C@@H](C)[C@@H]1CC[C@@H](O)C[C@@H]21
IC50 ([1]; Mus musculus): 2.3 nM | IC50 [2]: 0.46 nM

COc1ccc2c(c1)c(CC(=O)O)c(C)n2C(=O)c1ccc(Cl)cc1 [INDOMETHACIN]
IC50 ([1]; Mus musculus): > 10000 nM | IC50 [3]: 500 nM

Cc1c(C(=O)c2cccc3c(Br)cc(Br)cc23)c2cccc3c2n1[C@H](CN1CCOCC1)CO3
IC50 [2]: 48.3 nM

COc1ccc(C(=O)c2c(C)n3c4c(cccc24)OC[C@@H]3CN2CCOCC2)cc1
IC50 ([1]; Mus musculus): > 10000 nM | IC50 [3]: 30000 nM | IC50 [2]: 17500 nM

Cc1c(C(=O)c2ccccc2F)c2cccc3c2n1C(CN1CCOCC1)CO3 (centres undefined)
IC50 ([1]; Mus musculus): 76 nM | IC50 [3]: 42000 nM | IC50 [2]: 1426 nM

COc1ccc(C(=O)c2cn3c4c(cccc24)OCC3CN2CCOCC2)cc1 (centres undefined)
IC50 ([1]; Mus musculus): 45.5 nM | IC50 [2]: 249 nM | ED50 [4]: 2 mg/kg | inhibition [5]: -9%

CCc1c(C(=O)c2ccc(OC)cc2)c2cccc3c2n1C(CN1CCOCC1)CO3 (centres undefined)
inhibition at 10 µM [6]: 28% | inhibition [5]: 27%

Cc1c(C(=O)c2ccc(Br)c3ccccc23)c2cccc3c2n1C(CN1CCOCC1)CO3 (centres undefined)
IC50 ([1]; Mus musculus): 2.2 nM | IC50 [2]: 2.32 nM

COc1ccc(C(=O)c2c(C)n(CCN3CCOCC3)c3ccccc23)cc1 [PRAVADOLINE]
IC50 ([1]; Mus musculus): 453 nM | IC50 [3]: 5000 nM | IC50 [2]: 3155 nM | ED50 [7]: 4 mg/kg | ED50 [4]: 26 mg/kg

Cc1c(C(=O)c2ccc3ncccc3c2)c2cccc3c2n1C(CN1CCOCC1)CO3 (centres undefined)
IC50 ([1]; Mus musculus): 21 nM | IC50 [3]: 26000 nM | IC50 [2]: 132.5 nM

COc1ccc(C(=O)c2c(C)n3c4c(cccc24)OC[C@H]3CN2CCOCC2)cc1
IC50 ([1]; Mus musculus): 44 nM | IC50 [3]: 50000 nM | IC50 [2]: 106 nM

COc1ccc(C(=O)c2c(C)n3c4c(cccc24)CC(N2CCOCC2)C3)cc1 (centres undefined)
inhibition [8]: 12% | IC50 ([1]; Mus musculus): > 10000 nM | inhibition in vivo at 100 mg/kg [9]: 30% | inhibition [5]: 1.4%

Cc1c(C(=O)c2cccc3ccccc23)c2cccc3c2n1[C@H](CN1CCOCC1)CO3 (stereo in doubt) [WIN-552122]
IC50 [1]: 0.43 nM | IC50 [3]: 9000 nM

Cc1c(C(=O)c2cccc3ccccc23)c2cccc3c2n1[C@@H](CN1CCOCC1)CO3
IC50 ([1]; Mus musculus): > 10000 nM | IC50 [3]: 10000 nM | inhibition in vivo at 100 mg/kg [10]: 10%

COc1ccc(C(=O)c2c3n(c4ccccc24)CCC3N2CCOCC2)cc1 (centres undefined)
inhibition [8]: 49% | IC50 ([1]; Mus musculus): > 10000 nM | ED50 [4]: 91 mg/kg

COc1ccc(C(=O)c2c3n(c4ccccc24)C(CN2CCOCC2)CC3)cc1 (centres undefined)
IC50 ([1]; Mus musculus): 320 nM | IC50 [2]: 3053 nM

O=C(c1cccc2ccccc12)c1cn2c3c(cccc13)OCC2CN1CCOCC1 (centres undefined)
IC50 ([1]; Mus musculus): 2 nM | IC50 [2]: 7.37 nM

COc1ccc(C(=O)c2c3n(c4ccccc24)CC(N2CCOCC2)C3)cc1 (centres undefined)
inhibition [8]: 18% | IC50 ([1]; Mus musculus): > 10000 nM

COc1ccc(C(=O)c2c(C)n3c4c(cccc24)OCC3CN2CCOCC2)cc1 (centres undefined)
IC50 ([1]; Mus musculus): 123 nM | IC50 [3]: 72000 nM | IC50 [2]: 152 nM | inhibition in vivo at 100 mg/kg [10]: 30% | IC50 [11]: 4000 nM

Cc1c(C(=O)c2cccc3ccccc23)c2cccc3c2n1[C@H](CN1CCOCC1)CO3 (stereo in doubt; 21) [WIN-552122]
IC50 [1]: 6 nM
